Assay results taken from the kinase profiling compilation of Christmann-Franck et al. (2016).

Tests used:
Test in all cases: radiometric filter-binding kinase assay, Kinase HotSpot
Details in all cases: compound 0.5 µM; ATP 10 µM
[1] = biological target: ACVR1B (human) (UniProt P36896)
[2] = biological target: AURKB (human) (UniProt Q96GD4)
[3] = biological target: BRAF (human) (UniProt P15056)
[4] = biological target: CAMK1D (human) (UniProt Q8IU85)
[5] = biological target: CDK1 CCNA2 (human) (UniProt P06493+P20248)
[6] = biological target: CDK6 CCND1 (human) (UniProt Q00534+P24385)
[7] = biological target: CHUK (human) (UniProt O15111)
[8] = biological target: CLK2 (human) (UniProt P49760)
[9] = biological target: CSNK1E (human) (UniProt P49674)
[10] = biological target: CSNK2A2 (human) (UniProt P19784)
[11] = biological target: DAPK1 (human) (UniProt P53355)
[12] = biological target: DDR2 (human) (UniProt Q16832)
[13] = biological target: ERBB2 (human) (UniProt P04626)
[14] = biological target: ERBB4 (human) (UniProt Q15303)
[15] = biological target: FGFR1 (human) (UniProt P11362)
[16] = biological target: FGFR2 (human) (UniProt P21802)
[17] = biological target: GRK7 (human) (UniProt Q8WTQ7)
[18] = biological target: JAK2 JH1 JH2 (human) (UniProt O60674)
[19] = biological target: LCK (human) (UniProt P06239)
[20] = biological target: MAP2K1 (human) (UniProt Q02750)
[21] = biological target: MAP3K11 (human) (UniProt Q16584)
[22] = biological target: MAP3K14 (human) (UniProt Q99558)
[23] = biological target: MAPK10 (human) (UniProt P53779)
[24] = biological target: MARK2 (human) (UniProt Q7KZI7)
[25] = biological target: MYLK (human) (UniProt Q15746)
[26] = biological target: NEK6 (human) (UniProt Q9HC98)
[27] = biological target: NUAK1 (human) (UniProt O60285)
[28] = biological target: OXSR1 (human) (UniProt O95747)
[29] = biological target: PASK (human) (UniProt Q96RG2)
[30] = biological target: PKN2 (human) (UniProt Q16513)
[31] = biological target: PLK1 (human) (UniProt P53350)
[32] = biological target: PRKCB2 (human) (UniProt P05771)
[33] = biological target: PRKCZ (human) (UniProt Q05513)
[34] = biological target: PTK2B (human) (UniProt Q14289)
[35] = biological target: ROCK2 (human) (UniProt O75116)
[36] = biological target: RPS6KA3 KD1 KD2 (human) (UniProt P51812)
[37] = biological target: STK33 (human) (UniProt Q9BYT3)
[38] = biological target: TYK2 JH1 catalytic (human) (UniProt P29597)
[39] = biological target: WNK2 (human) (UniProt Q9Y3S1)
[40] = biological target: ZAP70 (human) (UniProt P43403)

Chain of MARK2 (human) (Q7KZI7 whole entry, looked up): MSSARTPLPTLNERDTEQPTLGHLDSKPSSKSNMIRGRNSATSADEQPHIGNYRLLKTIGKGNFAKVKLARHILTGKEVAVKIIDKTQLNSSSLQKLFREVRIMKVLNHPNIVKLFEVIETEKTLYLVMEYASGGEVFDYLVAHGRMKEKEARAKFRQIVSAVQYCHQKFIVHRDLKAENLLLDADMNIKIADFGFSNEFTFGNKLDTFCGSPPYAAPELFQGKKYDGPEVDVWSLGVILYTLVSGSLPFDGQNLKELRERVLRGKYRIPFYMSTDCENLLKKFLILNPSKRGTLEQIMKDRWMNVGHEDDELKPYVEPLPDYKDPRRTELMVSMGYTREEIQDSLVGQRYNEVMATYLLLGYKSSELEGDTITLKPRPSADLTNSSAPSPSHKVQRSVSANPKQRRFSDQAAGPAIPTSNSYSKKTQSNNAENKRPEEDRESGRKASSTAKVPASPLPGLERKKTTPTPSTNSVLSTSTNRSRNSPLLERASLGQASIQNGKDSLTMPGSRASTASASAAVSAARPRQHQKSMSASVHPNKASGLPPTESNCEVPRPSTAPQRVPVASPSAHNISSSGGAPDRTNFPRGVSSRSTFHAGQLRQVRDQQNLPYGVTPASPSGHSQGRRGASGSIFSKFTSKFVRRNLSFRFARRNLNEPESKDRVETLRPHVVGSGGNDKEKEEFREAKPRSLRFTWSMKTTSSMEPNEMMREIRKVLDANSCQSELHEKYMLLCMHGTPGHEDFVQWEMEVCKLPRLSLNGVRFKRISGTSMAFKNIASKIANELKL
Chain of STK33 (human) (Q9BYT3 whole entry, looked up): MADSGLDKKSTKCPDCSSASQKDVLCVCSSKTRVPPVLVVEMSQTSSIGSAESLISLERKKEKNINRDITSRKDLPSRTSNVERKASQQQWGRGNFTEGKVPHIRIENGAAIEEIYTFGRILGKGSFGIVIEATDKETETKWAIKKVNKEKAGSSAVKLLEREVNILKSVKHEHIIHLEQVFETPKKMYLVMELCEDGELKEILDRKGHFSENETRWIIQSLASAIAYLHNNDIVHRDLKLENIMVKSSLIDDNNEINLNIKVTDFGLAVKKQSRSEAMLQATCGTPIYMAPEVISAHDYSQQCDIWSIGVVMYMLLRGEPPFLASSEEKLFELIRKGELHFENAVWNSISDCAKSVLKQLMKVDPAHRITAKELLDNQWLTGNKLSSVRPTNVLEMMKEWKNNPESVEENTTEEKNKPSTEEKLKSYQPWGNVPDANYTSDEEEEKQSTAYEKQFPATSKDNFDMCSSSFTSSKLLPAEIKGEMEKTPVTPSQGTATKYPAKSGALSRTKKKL
Chain of MAPK10 (human) (P53779 whole entry, looked up): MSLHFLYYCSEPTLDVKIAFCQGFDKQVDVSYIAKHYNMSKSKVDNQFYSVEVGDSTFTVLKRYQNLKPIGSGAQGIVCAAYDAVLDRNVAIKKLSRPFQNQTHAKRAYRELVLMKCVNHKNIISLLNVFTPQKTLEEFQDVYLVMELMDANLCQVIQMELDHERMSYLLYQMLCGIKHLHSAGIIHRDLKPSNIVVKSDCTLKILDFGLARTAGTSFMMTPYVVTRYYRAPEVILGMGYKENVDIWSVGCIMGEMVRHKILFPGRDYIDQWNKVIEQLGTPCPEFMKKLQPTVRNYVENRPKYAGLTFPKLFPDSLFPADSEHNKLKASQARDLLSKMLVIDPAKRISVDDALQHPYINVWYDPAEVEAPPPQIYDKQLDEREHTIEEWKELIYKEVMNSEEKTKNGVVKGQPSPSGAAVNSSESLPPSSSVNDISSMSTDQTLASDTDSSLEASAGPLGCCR
Chain of FGFR1 (human) (P11362 whole entry, looked up): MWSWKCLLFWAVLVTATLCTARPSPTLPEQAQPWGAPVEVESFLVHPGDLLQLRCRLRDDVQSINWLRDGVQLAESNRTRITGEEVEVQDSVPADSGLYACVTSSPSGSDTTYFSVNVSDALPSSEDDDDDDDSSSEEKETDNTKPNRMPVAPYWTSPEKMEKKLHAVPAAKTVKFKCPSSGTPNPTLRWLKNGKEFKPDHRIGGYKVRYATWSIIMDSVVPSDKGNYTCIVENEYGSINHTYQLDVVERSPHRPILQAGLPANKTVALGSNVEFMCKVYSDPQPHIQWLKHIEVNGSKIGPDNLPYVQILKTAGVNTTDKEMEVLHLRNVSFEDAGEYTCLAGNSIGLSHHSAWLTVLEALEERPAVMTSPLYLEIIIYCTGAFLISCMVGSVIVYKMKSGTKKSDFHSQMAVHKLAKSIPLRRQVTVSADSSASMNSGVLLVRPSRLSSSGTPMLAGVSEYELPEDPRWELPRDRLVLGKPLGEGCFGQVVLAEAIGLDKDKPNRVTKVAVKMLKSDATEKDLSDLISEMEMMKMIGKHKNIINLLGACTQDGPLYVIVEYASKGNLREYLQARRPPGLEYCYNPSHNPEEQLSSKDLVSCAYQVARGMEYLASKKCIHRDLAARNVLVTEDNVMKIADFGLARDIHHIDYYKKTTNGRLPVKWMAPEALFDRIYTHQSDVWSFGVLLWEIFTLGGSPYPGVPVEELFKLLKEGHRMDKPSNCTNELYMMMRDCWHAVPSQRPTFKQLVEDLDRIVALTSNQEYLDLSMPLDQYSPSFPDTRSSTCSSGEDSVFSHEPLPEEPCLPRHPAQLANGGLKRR
Chain of CSNK2A2 (human) (P19784 whole entry, looked up): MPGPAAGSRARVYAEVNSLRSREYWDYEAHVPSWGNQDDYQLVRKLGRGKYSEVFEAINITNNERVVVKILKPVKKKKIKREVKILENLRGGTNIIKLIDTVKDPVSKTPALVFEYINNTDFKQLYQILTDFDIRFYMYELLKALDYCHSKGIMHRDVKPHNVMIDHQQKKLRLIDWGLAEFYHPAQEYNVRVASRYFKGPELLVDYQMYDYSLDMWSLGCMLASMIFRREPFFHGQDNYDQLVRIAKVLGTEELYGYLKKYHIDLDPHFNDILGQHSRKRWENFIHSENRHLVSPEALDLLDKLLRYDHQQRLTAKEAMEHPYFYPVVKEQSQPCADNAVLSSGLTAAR
Chain of MAP3K11 (human) (Q16584 whole entry, looked up): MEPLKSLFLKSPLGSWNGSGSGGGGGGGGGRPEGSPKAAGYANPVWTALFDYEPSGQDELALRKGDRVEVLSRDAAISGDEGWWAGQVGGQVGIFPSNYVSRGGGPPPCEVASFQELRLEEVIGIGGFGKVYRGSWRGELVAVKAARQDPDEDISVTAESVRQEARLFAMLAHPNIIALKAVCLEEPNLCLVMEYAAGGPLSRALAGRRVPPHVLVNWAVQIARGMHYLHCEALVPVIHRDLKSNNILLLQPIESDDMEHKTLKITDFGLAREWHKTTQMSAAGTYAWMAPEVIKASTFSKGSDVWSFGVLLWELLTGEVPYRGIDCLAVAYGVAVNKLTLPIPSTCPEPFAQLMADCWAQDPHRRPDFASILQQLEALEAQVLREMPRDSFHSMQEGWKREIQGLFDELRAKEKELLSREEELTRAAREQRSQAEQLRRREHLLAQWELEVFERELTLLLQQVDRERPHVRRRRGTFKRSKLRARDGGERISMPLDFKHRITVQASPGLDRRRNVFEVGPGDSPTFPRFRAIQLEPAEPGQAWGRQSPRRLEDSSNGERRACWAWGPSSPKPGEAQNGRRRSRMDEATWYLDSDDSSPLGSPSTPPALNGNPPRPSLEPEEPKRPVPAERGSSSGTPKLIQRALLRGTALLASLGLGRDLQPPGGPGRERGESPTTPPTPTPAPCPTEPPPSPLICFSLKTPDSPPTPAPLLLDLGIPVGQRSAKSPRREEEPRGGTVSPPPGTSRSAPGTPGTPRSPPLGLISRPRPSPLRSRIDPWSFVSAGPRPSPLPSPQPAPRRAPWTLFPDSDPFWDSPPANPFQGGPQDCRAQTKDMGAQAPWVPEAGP
Chain of MAP3K14 (human) (Q99558 whole entry, looked up): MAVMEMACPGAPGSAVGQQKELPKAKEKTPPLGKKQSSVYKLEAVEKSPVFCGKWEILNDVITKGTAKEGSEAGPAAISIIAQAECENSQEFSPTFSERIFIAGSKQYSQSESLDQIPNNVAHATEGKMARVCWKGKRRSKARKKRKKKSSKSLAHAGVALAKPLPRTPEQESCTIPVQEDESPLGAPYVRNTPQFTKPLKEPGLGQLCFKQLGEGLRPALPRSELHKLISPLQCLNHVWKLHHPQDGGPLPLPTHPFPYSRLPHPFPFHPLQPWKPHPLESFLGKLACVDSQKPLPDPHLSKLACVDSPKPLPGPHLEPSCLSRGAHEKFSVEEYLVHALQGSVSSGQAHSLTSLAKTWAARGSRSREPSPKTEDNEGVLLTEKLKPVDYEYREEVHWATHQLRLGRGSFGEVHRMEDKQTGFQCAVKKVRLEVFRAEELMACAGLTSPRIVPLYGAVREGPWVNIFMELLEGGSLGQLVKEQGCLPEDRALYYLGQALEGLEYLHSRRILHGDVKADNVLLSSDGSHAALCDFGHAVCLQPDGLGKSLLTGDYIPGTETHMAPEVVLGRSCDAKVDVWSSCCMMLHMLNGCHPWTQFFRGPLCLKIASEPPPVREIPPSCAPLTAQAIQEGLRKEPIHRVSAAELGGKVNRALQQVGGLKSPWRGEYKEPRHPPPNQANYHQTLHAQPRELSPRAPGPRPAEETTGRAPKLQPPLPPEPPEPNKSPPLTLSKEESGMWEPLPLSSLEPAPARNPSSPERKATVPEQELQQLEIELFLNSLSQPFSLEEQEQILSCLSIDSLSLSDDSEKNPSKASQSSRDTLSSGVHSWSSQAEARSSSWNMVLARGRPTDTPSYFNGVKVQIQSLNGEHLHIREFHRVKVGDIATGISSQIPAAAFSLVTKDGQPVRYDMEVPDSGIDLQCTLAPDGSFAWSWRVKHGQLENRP
Chain of NEK6 (human) (Q9HC98 whole entry, looked up): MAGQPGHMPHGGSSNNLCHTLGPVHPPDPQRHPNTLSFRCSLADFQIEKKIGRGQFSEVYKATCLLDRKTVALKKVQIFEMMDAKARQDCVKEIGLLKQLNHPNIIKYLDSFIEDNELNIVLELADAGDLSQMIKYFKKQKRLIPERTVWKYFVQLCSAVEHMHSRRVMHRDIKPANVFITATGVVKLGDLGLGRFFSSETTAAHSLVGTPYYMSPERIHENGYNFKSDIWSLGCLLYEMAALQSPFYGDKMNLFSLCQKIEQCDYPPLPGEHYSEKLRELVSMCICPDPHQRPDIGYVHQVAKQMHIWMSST

| SMILES | residual activity [1] [%] | residual activity [2] [%] | residual activity [3] [%] | residual activity [4] [%] | residual activity [5] [%] | residual activity [6] [%] | residual activity [7] [%] | residual activity [8] [%] | residual activity [9] [%] | residual activity [10] [%] | residual activity [11] [%] | residual activity [12] [%] | residual activity [13] [%] | residual activity [14] [%] | residual activity [15] [%] | residual activity [16] [%] | residual activity [17] [%] | residual activity [18] [%] | residual activity [19] [%] | residual activity [20] [%] | also measured |
| --- | --- | --- | --- | --- | --- | --- | --- | --- | --- | --- | --- | --- | --- | --- | --- | --- | --- | --- | --- | --- | --- |
| CCN(CC)CCNC(=O)c1c(C)[nH]c(/C=C2\C(=O)Nc3ccc(Cl)cc32)c1C | 103 | 31.9 | 109 | 60.2 | 87.5 | 27.8 | 102 | 15.8 | 46.7 | 64.3 | 47.7 | 104 | 102 | 86.1 | 20.3 | 29.3 | 62.2 | 54 | 11.8 | 33.1 | residual activity [21]: 21%; residual activity [22]: 118%; residual activity [23]: 104%; residual activity [24]: 9.74%; residual activity [25]: 17.6%; residual activity [26]: 97.8%; residual activity [27]: 2.06%; residual activity [28]: 80.1%; residual activity [29]: 89.6%; residual activity [30]: 84.4%; residual activity [31]: 105%; residual activity [32]: 110%; residual activity [33]: 104%; residual activity [34]: 30.5%; residual activity [35]: 73.5%; residual activity [36]: 15.1%; residual activity [37]: 20.6%; residual activity [38]: 30.8%; residual activity [39]: 101%; residual activity [40]: 91.2% |
| Cc1[nH]c(/C=C2\C(=O)Nc3ccc(S(=O)(=O)N(C)c4cccc(Cl)c4)cc32)c(C)c1C(=O)N1CCN(C)CC1 | 102 | 19.2 | 91.9 | 138 | 88.7 | 84.8 | 100 | 5.1 | 76.1 | 84.6 | 106 | 105 | 91.5 | 105 | 80 | 74.1 | 86.7 | 40.6 | 29.3 | 89.3 | residual activity [21]: 79.1%; residual activity [22]: 109%; residual activity [23]: 99%; residual activity [24]: 44.1%; residual activity [25]: 84.3%; residual activity [26]: 104%; residual activity [27]: 15.9%; residual activity [28]: 116%; residual activity [29]: 106%; residual activity [30]: 85.4%; residual activity [31]: 96.9%; residual activity [32]: 99.1%; residual activity [33]: 94.5%; residual activity [34]: 57.7%; residual activity [35]: 58.2%; residual activity [36]: 76.8%; residual activity [37]: 67.9%; residual activity [38]: 75.1%; residual activity [39]: 112%; residual activity [40]: 94.4% |
